Data as given in US11192949B2, “HIV-1 vaccine” (CASE WESTERN RESERVE UNIVERSITY, priority 2013, dated 2021).
pIC50: −log10 of the molar value. Read-outs that look alike come from different tables or passages of the source.

Legend:
[1] = tested on: gp120 chimeric virus clone MVC.21.132 (A74.MVC.21.132)
Experimental: (§1) U87.CD4.CCR5 cells were plated in 96-well format (1×10^4 cells/well) for 24 hr. Cells were then treated for 2 hr with 5-fold dilutions of MVC (100 μM to 2×10^−6 μM) and then infected at a multiplicity of infection (MOI) of 0.001 infectious units (IU)/cell. All assays were performed in triplicate. After 24 hr, cells were washed in 1×PBS to remove free virus and media containing the appropriate MVC drug dilutions was added. Viral replication was measured daily by radio-labeled reverse transcriptase assay using a Packard beta counter to quantify counts per minute (cpm). Drug sensitivity curves were generated using non-linear regression curve fitting features of GraphPad Prism 5 software.
(§2) Gp120 chimeric viruses were cloned into an NL4-3 backbone from passage control and virus passaged in the presence of MVC escalations using the yeast homologous recombination-gap repair technique. From this point forward, the viruses and clones are referred to as […] (passage control) or MVC (maraviroc selected). 21 (number of passages). 1 (clone number) or PC.21.1 or MVC.21.1. The gp120 regions of the PC.1 (starting virus), PC.21 and MVC.21 viruses were PCR amplified using primers F_gp120 5′-[…]-3′ (SEQ ID NO: 1) and B_gp120 5′-[…]-3′ (SEQ ID NO: 2). Briefly, these gp120 PCR products were then co-transformed with a SacI-linearized pREC_NFL_Δgp120/URA3 into Saccharomyces cerevisiae MYA-906 cells (ATCC). Following homologous recombination, plasmids were extracted from the yeast cells and transformed into electrocompetent Escherichia coli Stbl4 cells (Invitrogen). Individual bacterial colonies were grown and plasmids were extracted using Qiagen miniprep kits. Chimeric pREC_NFL_gp120 plasmids were co-transfected into 293T cells (3×10^4 cells/well) along with the complementing plasmid pCMV_cplt using Fugene 6 reagent (Promega, Madison, Wis.) as described. Heterodiploid virus particles containing one copy of the NFL and cplt HIV-1 RNAs represent approximately half of the virus derived from 293T cell transfections and can be propagated on U87.CD4.CCR5 cells to produce replication competent virus with a complete virus genome. Virus stocks of each clone were titered as described above. The DNA sequences obtained in the course of this work were deposited in the GenBank/EMBL/DDBJ databases under the following accession numbers: env(gp120) (JX993942-JX993981).
For multiple replication cycle drug susceptibility assays, U87.CD4.CCR5 cells were plated as above and pretreated with 5-fold dilutions of MVC (100 μM to 2×10^−6 μM). Cells were infected at an MOI of 0.001 IU/cell with NL4-3/gp120 chimeric virus in quadruplicate. […] Reverse transcriptase activity in supernatant was monitored as previously described on days 4 through 7 post infection.

[2] = tested on: A74 MVC treated week 21 virus (MVC.21); assay: Drug susceptibility assay (reverse transcriptase activity) in U87.CD4.CCR5 cells, MVC selected virus MVC.21; type: cell-based, HIV-1
Experimental: (§3) (A) Virus A74 derived from passage control week 21 (PC.21) and MVC treated week 21 (MVC.21) cultures were used to infect U87.CD4.CCR5 cells in the presence of increasing concentrations of MVC. (B) These viruses were also used to infect U87.CD4.CCR5 cells in the presence of maximal inhibitory concentrations (10 μM) of CCR5 antagonists MVC and TAK-779 and fusion inhibitor enfuvirtide (T20). Reverse transcriptase activity was measured 7 days post infection. Percent infection was calculated relative to the no drug control for each virus. Data shown are means of triplicates with error bars representing standard deviations.
(§4) FIG. 15 illustrates a plot showing sensitivity to attachment inhibitor BMS-806. […] Reverse transcriptase activity was measured five days post infection and percent inhibition calculated based on the no drug condition. Data represents means of triplicates with standard deviations.
as §1

[3] = tested on: gp120 chimeric virus clone PC.21.111
Experimental: as §1, §2

[4] = tested on: gp120 chimeric virus clone MVC.21.123
Experimental: as §1, §2

[5] = tested on: gp120 chimeric virus clone MVC.21.122; settings: U87.CD4.CCR5
Experimental: as §1, §2

[6] = tested on: gp120 chimeric virus clone PC.1.1
Experimental: as §1, §2

[7] = tested on: gp120 chimeric virus clone MVC.21.119
Experimental: as §1, §2

[8] = tested on: gp120 chimeric virus clone PC.21.109
Experimental: as §1, §2

[9] = tested on: gp120 chimeric virus clone MVC.21.128
Experimental: as §1, §2

[10] = tested on: HIV-1 subtype C primary isolate C8; settings: read-out: mean IC50; U87.CD4.CCR5; virus C8
Experimental: as §1
(§5) We assessed “intrinsic” susceptibilities of HIV-1 subtype A, B, and C primary isolates to maraviroc. Multiple cycle drug susceptibility assays were performed in U87.CD4.CCR5 cells in the presence of 5-fold decreasing concentrations of MVC starting at 100 μM.

[11] = tested on: HIV-1 subtype B primary isolate B6; settings: read-out: mean IC50; U87.CD4.CCR5; virus B6
Experimental: as §1, §5

[12] = tested on: A74 passage control week 21 virus (PC.21); assay: Drug susceptibility assay (reverse transcriptase activity) in U87.CD4.CCR5 cells, passage control virus PC.21; type: cell-based, HIV-1
Experimental: as §3, §4, §1

[13] = tested on: CC1/85 MVC-resistant virus containing the T316 and V323 V3 loop mutations; settings: 1 μM MVC; cited from earlier work
[14] = tested on: A74 MVC treated week 21 virus (MVC.21); assay: Multiple cycle drug sensitivity assay in PBMC, virus MVC.21; type: cell-based, HIV-1
Experimental: (§6) U87.CD4.CCR5 cells were obtained through the AIDS Research and Reference Reagent Program, Division of AIDS, NIAID, NIH. U87.CD4.CCR5 cells were maintained in DMEM supplemented with 10% FBS, 100 μg/mL penicillin/streptomycin, 300 μg/mL G418, and 1 μg/mL puromycin (Invitrogen, Carlsbad, Calif.). 293T cells were cultured in DMEM supplemented with 10% FBS and 100 μg/mL penicillin/streptomycin. Peripheral blood mononuclear cells (PBMCs) were obtained from whole blood extracted from a HIV negative donor by Ficoll-Paque centrifugation. PBMC cultures were stimulated with 1 μg/mL phytohemagglutinin (PHA; Gibco, Carlsbad, Calif.) for 48 hrs in RPMI 1640 medium (Gibco) containing 10% FBS and 100 μg/mL penicillin/streptomycin. Cells were maintained thereafter in RPMI 1640 medium with 10% FBS, 100 μg/mL penicillin/streptomycin, and […] interleukin-2 (IL-2; Gibco).
(§7) All assays were performed in triplicate.
(§8) Therefore, multiple cycle drug sensitivity assays were performed in peripheral blood mononuclear cells (PBMC) isolated from an HIV negative donor with PC.21 and MVC.21.

[15] = tested on: HIV-1 subtype A primary isolate A74; settings: U87.CD4.CCR5; virus A74
B6.MVC.21 virus = settings: U87.CD4.CCR5
Experimental: as §1
(§9) Reverse transcriptase (RT) activity was monitored in the cell-free supernatant for each weekly passage and inhibitor concentration increased when RT activity reached 2-fold over background.

B6.PC.21 virus = settings: U87.CD4.CCR5
Experimental: as §1, §9

[16] = tested on: HIV-1 subtype A primary isolate A74; assay: Multiple cycle drug sensitivity assay in PBMC, virus A74; type: cell-based
[17] = tested on: A74.MVC.21.132 psuedovirus
Experimental: (§10) For single replication cycle drug susceptibility assays, U87.CD4.CCR5 cells in 96-well format (1×10^4 cells/well) were pretreated for 2 hours with 10-fold dilutions of MVC (1 μM to 1×10^−7 μM) then infected in triplicate with luciferase encoding psuedovirus. After 48 hours, supernatant was removed and cells were lysed using 50 μL Glo lysis buffer (Promega, Madison, Wis.). Cells were lysed for 20 minutes at room temperature, transferred to white polystyrene 96 well plates, and read with a PerkinElmer VICTOR plate reader using injectors to introduce 50 μL Bright Glo reagent per well (Promega, Madison, Wis.). Luciferase activity was measured as relative light units (RLU).

[18] = tested on: subtype B patient-derived MVC resistant virus R3; settings: clone R3; single cycle conditions
Experimental: as §10

[19] = tested on: subtype B patient-derived MVC resistant virus R3; settings: clone R3; multiple cycle conditions
Experimental: For multiple replication cycle drug susceptibility assays, U87.CD4.CCR5 cells were plated as above and pretreated with 5-fold dilutions of MVC (100 μM to 2×10^−6 μM). Cells were infected at an MOI of 0.001 IU/cell with NL4-3/gp120 chimeric virus in quadruplicate. After 24 hours, viral inoculums were removed and replaced with media containing the appropriate MVC dilutions. Reverse transcriptase activity in supernatant was monitored as previously described on days 4 through 7 post infection.

[20] = tested on: gp120 chimeric virus clone MVC.21.122.425K
Experimental: as §1

[21] = tested on: A74 passage control week 21 virus (PC.21); assay: Multiple cycle drug sensitivity assay in PBMC, virus PC.21; type: cell-based, HIV-1
Experimental: as §6, §7, §8

[22] = highest MVC concentrations (4, 20, 100 μM)

## Maraviroc [MVC]
[1]; A74.MVC.21.132, multiple replication cycle conditions
  rightward shift in IC50 compared with MVC sensitive clone A74.PC.21.109: 17 fold
[1]; clone MVC.21.132
  IC50 fold change relative to input gp120 clone PC.1.1: 10 fold
  MPI: > 95%
[1]; clone MVC.21.132, U87.CD4.CCR5
  pIC50: 8.06
[2]; virus MVC.21
  pIC50: 6.67
[2]; virus MVC.21, highest drug concentration tested 100 μM
  MPI (maximal percent inhibition): 81%
[3]
  sensitivity to MVC inhibition: sensitive
[4]
  IC50 fold change relative to input gp120 clone PC.1.1: 11 fold
  MPI: > 95%
[5]
  pIC50: 9.05
[6]
  sensitivity to MVC inhibition: sensitive
[7]
  IC50 fold change relative to input gp120 clone PC.1.1: 40 fold
  MPI: > 95%
[7]; U87.CD4.CCR5
  pIC50: 7.47
[7]; [22]
  inhibition (RT activity): 97%
[8]
  sensitivity to MVC inhibition: sensitive
[8]; [22]
  inhibition (RT activity): 99.9%
[9]
  IC50 fold change relative to input gp120 clone PC.1.1: 40 fold
  MPI: > 95%
[9]; U87.CD4.CCR5
  pIC50: 7.43
[10]
  pIC50: 8.70
[11]
  pIC50: 8.70
[12]; virus PC.21
  pIC50: 9.00
  MPI (maximal percent inhibition): 100%
[13]
  level of replication in the presence of drug as compared to the absence of drug: 25%
[14]
  pIC50: 6.52
  MPI: 73%
[15]
  pIC50: 8.00
  MPI (maximal percent inhibition): 99%
B6.MVC.21 virus; B6 week 21 inhibitor treated culture
  pIC50: 7.85
B6.MVC.21 virus; virus B6.MVC.21
  MPI (maximal percent inhibition): 99%
B6.PC.21 virus; B6 week 21 control culture
  pIC50: 8.10
B6.PC.21 virus; virus B6.PC.21
  MPI (maximal percent inhibition): 100%
[16]
  pIC50: 8.30
  MPI: 100%
[17]
  resistance in single cycle assay: resistance could not be detected
[18]
  maximal percent inhibition (MPI): 56%
[19]
  maximal percent inhibition (MPI): 61%
[20]
  shift in IC50 relative to MVC.21.122: 36 fold
[20]; U87.CD4.CCR5
  pIC50: 7.48
[21]
  pIC50: 8.30
  MPI: 98%
[21]; read-out: IC50
  pIC50: 8.22

## Cc1ccc(-c2ccc3c(c2)C=C(C(=O)Nc2ccc(C[N+](C)(C)C4CCOCC4)cc2)CCC3)cc1.[Cl-] [TAK-779]
[2]; 10 μM (IC99 inhibitory concentration), MVC.21
  inhibition of virus replication: cross resistance
[12]; 10 μM (IC99 inhibitory concentration), PC.21
  inhibition of virus replication: completely blocked

## COc1ccnc2[nH]cc(C(=O)C(=O)N3CCN(C(=O)c4ccccc4)C[C@H]3C)c12 [BMS-806]
[2]; highest concentrations tested (50 and 5 μM), MVC.21
  inhibition: 98%
[12]; highest concentrations tested (50 and 5 μM), PC.21
  inhibition: 46%
